These results are taken from US20190091177A1, “METHOD OF TREATING SELECTED PATIENT POPULATION EXPERIENCING DRAVET SYNDROME” (ZOGENIX INTERNATIONAL LIMITED, priority 2017, published 2019).

The subject of data set [1] is patients with Dravet syndrome. Nature of the data set: Study 1: Phase 3 randomized, double blind, placebo controlled study (ZX008-1501/ZX008-1502) of liquid fenfluramine formulation as adjunctive therapy. The class given is in vivo, human. As for the experimental part: The first 119 subjects to be randomized in both identical studies combined were analyzed and reported as Study 1 (FIG. 1), covered by a Statistical Analysis Plan (SAP).
Primary and key secondary endpoints in the Study 1 SAP were pre-determined. All patients were treated twice per day over a period of 14 weeks using an oral syringe to administer the formulation. The treatment period included a two-week titration period and a 12-week maintenance period.
The initial results of Study 1 are outlined below. The randomized, double blind, placebo controlled, Phase 3 study enrolled 119 patients across sites in the United States, Canada, Europe and Australia. The median age of patients was 8 years, the mean age of patients was 9 years (range, 2-18 years) (FIG. 2).
Patients were titrated to their target dose over two weeks, and then remained at that fixed dose for 12 weeks. The mean baseline convulsive seizure frequency across the study groups was approximately 40 seizures per month. 110 (92%) patients completed the study (85% 0.8 mg/kg/day; 100% 0.2 mg/kg/day; 93% placebo).
The proportion of patients who achieved ≥75% seizure reductions, a secondary (non-key) efficacy measure, is also presented.
The mean number of convulsive seizure free days, defined as a day for which diary data are available and no convulsive seizures have been reported, was determined for each treatment group during the Baseline and T+M Periods. Using a parametric analysis, comparisons for the ZX008 groups to placebo were estimated from an ANCOVA model with treatment group (3 levels) and age group (<6 years, ≥6 years) as factors, log baseline number of convulsive seizure free days as a covariate and log convulsive seizure free days (Titration+Maintenance, or Maintenance Period) as response. The mean (SD) number of convulsive seizure free days per 28 days during the Baseline Period was 12.6 (7.68), 15.7 (6.80), and 14.6 (7.59) for the placebo, 0.2 and 0.8 mg/kg/day groups, respectively. […]

The subject of data set [2] is patients with Dravet syndrome. To be noted: cited from earlier work; for >50% Reduction in Seizures (patients) / Seizure-free Patients: fenfluramine and valproate, average daily dose 0.34 mg/kg/day for 1 to 22 years, 12 patients, 0.34 mg/kg/day.
Setting [3] is: long-term fenfluramine treatment.

Like-named read-outs stand apart in the source and are kept apart here.

As to `CCNC(C)Cc1cccc(C(F)(F)F)c1` (racemic) [Fenfluramine, (RS)-N-ethyl-1-[3-(trifluoromethyl)phenyl]propan-2-amine], the “Mean (SD) non-convulsive seizure frequency per 28 days at the end of the T+M Period” value is listed as 93.7 (219.69) per 28 days in data set [1] (0.2 mg/kg/day, baseline 193.6 (478.45)) and 127.9 (297.39) per 28 days in data set [1] (0.8 mg/kg/day, baseline 335.2 (758.58)). In addition, the “Reduction from Baseline in non-convulsive seizure frequency (%, [SD])” value in data set [1] (0.8 mg/kg/day, end of T+M Period) was 59.1% (40.14). Moreover, the “>50% Reduction in Seizures (patients)” value was 9/12 (75%) in data set [2] and 75% in data set [2] (listed as fenfluramine). Further, the “Seizure-free Patients” value was 8/12 (66%) in data set [2] and 66.6% in data set [2] (listed as fenfluramine). Also, the “Echocardiography monitoring for possible heart valve defects” value in data set [2] (setting [3]) is reported as “No clinically relevant defects were identified”. Also, the “Effect on types of seizures” value in data set [2] (setting [3]) was “effectively reduced the incidence of all types of seizures”.
